Source: patent US9518107B2, “Pharmaceutical compositions containing polypeptides derived from α-1 antitrypsin and methods of use thereof” (YISSUM RESEARCH DEVELOPMENT COMPANY OF THE HEBREW …, priority 2010, dated 2016)

System: peritoneal macrophages
Assay: Oxidative burst of peritoneal macrophages (luminol luminescence, phorbol myristate acetate)
Type: cell-based, female C57BL/6 mice
Conditions: 1 μg/ml UBE; FIG. 19
Procedure: Macrophages were harvested by peritoneal lavage of female C57BL/6 mice i.p. injected with thioglycolate. 0.2 ml cells (3×10^5/ml), luminol (200 μM), horseradish peroxidase (1.0 unit/ml) and UBE were suspended in Hank's balanced salt solution (HBSS) (final concentrations of the peptide in the reaction mixture are indicated in the figure). The reaction started by the addition of 1 μM phorbol myristate acetate. The reaction was performed in a 96-well plate. Luminescence was measured by Tecan spectrofluoro Plus.

With “SMPPIVRFDHPFLFIIFEEHTQSPLFVGKVVDPTHK (listed as Mus musculus) [UBE, 36-mer peptide corresponding to residues 378-413 of Mus musculus alpha-1-antitrypsin (serpin a1c)]” the “oxidative burst of peritoneal macrophages (luminescence)” value was “suppressed”.
